# Measured values from patent US20250179103A1, “6-OXODECAHYDROPYRROLO[1,2-A][1,5]DIAZOCINE AND 6-OXODECAHYDRO-4H-PYRROLO[2,1-D][1,5]THIAZOCINE DERIVATIVES AS STAT3 AND STAT6 MODULATORS FOR THE TREATMENT OF CANCER AND INFLAMMATORY CONDITIONS” (Recludix Pharma, Inc., priority 2022, published 2025).
# pIC50: −log10 of the molar value.
# Experiments:
# [1] = biological target: T1, Recombinant STAT6 protein (STAT6(W123-T658)) (Homo sapiens, UniProt P42226); test: STAT6 Fluorescence Polarization (FP) Assay; assay type: binding; settings: STAT6(W123-T658) 250 nM, probe 5-FAM-ApYKPFQDLI-NH2 2 nM, 45-minute incubation
# T1 construct: Recombinant STAT6 protein (STAT6(W123-T658))
# T1 sequence (P42226 123-658): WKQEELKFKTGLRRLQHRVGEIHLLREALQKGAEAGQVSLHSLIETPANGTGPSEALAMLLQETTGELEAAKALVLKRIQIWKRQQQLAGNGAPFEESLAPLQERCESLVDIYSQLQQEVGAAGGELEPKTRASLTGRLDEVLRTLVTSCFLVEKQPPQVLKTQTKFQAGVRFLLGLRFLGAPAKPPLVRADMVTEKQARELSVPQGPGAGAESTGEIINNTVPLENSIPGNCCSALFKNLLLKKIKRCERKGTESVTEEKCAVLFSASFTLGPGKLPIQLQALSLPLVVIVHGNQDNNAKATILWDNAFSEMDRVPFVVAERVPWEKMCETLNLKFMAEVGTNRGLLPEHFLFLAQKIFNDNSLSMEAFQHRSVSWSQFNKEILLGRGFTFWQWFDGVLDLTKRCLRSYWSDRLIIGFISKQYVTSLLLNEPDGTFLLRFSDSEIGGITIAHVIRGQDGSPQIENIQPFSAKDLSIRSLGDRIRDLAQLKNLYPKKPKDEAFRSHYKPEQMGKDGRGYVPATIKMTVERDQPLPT
# In short: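 Displacement of a fluorescent phosphotyrosine peptide (5-FAM-ApYKPFQDLI-NH2, 2 nM) from STAT6(W123-T658) (250 nM), 1% DMSO, pH 7.4 HEPES buffer. After 45 min at room temperature, polarization (mP) was plotted versus log compound concentration and fitted by nonlinear regression to give IC50.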
# [2] = biological target: T2, Recombinant STAT3 protein (STAT3(G127-I722)) (Homo sapiens, UniProt P40763); test: STAT3 Fluorescence Polarization (FP) Assay; assay type: binding; settings: STAT3(G127-I722) 25 nM, probe 5-FAM-GpYLPQTV-NH2 2 nM, 45-minute incubation
# T2 construct: Recombinant STAT3 protein (STAT3(G127-I722))
# In short: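 Fluorescence polarization after a 45-min room-temperature incubation measured compound displacement of a 2 nM fluorescein-labelled phosphotyrosine peptide (5-FAM-GpYLPQTV-NH2) from 25 nM recombinant STAT3(G127-I722). Buffer was 10 mM HEPES pH 7.4 with 1% DMSO final. IC50s were fitted by nonlinear regression of mP against log concentration.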
# T2 sequence (P40763 127-722): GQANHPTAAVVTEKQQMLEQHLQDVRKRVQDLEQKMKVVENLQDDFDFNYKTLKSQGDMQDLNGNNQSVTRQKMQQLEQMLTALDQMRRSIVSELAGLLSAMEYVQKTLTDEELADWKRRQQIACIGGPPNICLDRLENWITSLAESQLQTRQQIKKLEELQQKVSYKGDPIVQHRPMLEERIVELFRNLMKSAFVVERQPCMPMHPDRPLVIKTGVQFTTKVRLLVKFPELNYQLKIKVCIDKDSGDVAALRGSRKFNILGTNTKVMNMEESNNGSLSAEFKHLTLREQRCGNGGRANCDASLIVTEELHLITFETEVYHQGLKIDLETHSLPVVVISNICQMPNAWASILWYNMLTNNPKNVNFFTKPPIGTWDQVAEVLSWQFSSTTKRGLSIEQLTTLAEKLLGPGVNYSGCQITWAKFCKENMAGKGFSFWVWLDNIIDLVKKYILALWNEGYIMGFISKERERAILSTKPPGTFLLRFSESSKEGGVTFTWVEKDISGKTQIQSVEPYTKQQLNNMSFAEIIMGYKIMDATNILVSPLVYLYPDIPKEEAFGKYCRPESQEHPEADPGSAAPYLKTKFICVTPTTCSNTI
compound,measurement,setting,value
"CN(C(=O)[C@@H]1CC[C@@H]2CCN(CC(F)F)C[C@H](NC(=O)c3cc4cc(C(F)(F)P(=O)(O)O)ccc4[nH]3)C(=O)N21)c1ccccc1 [Compound 218, ((2-(((5S,8S,10aR)-3-(2,2-difluoroethyl)-8-(methyl(phenyl)carbamoyl)-6-oxodecahydropyrrolo[1,2-a][1,5]diazocin-5-yl)carbamoyl)-1H-indol-5-yl)difluoromethyl)phosphonic acid]",pIC50,[1],5.52 to 6.52
same,pIC50,[2],5.00 to 6.00
"CC(=O)N1CC[C@H]2CC[C@@H](C(=O)Nc3ccc4ncncc4c3)N2C(=O)[C@@H](NC(=O)c2cc3cc(C(F)(F)P(=O)(O)O)ccc3s2)C1 [Compound 172, ((2-(((5S,8S,10aR)-3-acetyl-6-oxo-8-(quinazolin-6-ylcarbamoyl)decahydropyrrolo[1,2-a][1,5]diazocin-5-yl)carbamoyl)benzo[b]thiophen-5-yl)difluoromethyl)phosphonic acid]",pIC50,[1],5.52 to 6.52
same,pIC50,[2],5.00 to 6.00
"CC(=O)N1CC[C@H]2CC[C@@H](C(=O)N(C)c3ccccc3)N2C(=O)[C@@H](NC(=O)c2cc3cc(C(F)(F)P(=O)(O)O)ccc3s2)C1 [Compound 109, ((2-(((5S,8S,10aR)-3-acetyl-8-(methyl(phenyl)carbamoyl)-6-oxodecahydropyrrolo[1,2-a][1,5]diazocin-5-yl)carbamoyl)benzo[b]thiophen-5-yl)difluoromethyl)phosphonic acid]",pIC50,[1],5.52 to 6.52
same,pIC50,[2],5.00 to 6.00
"CC(=O)N1CC[C@H]2CC[C@@H](C(=O)N(C)c3ccccc3)N2C(=O)[C@@H](NC(=O)/C=C(\C)c2cccc(C(F)(F)P(=O)(O)O)c2)C1 [Compound 50, ((3-((E)-4-(((5S,8S,10aR)-3-acetyl-8-(methyl(phenyl)carbamoyl)-6-oxodecahydropyrrolo[1,2-a][1,5]diazocin-5-yl)amino)-4-oxobut-2-en-2-yl)phenyl)difluoromethyl)phosphonic acid]",pIC50,[1],4.52 to 5.52
same,pIC50,[2],< 5.00
"CC(=O)N1CC[C@H]2CC[C@@H](C(=O)N(C)c3ccccc3)N2C(=O)[C@@H](NC(=O)c2cc3cc(C(C)P(=O)(O)O)ccc3s2)C1 (stereo partly drawn) [Compound 20, (1-(2-(((5S,8S,10aR)-3-acetyl-8-(methyl(phenyl)carbamoyl)-6-oxodecahydropyrrolo[1,2-a][1,5]diazocin-5-yl)carbamoyl)benzo[b]thiophen-5-yl)ethyl)phosphonic acid]",pIC50,[1],< 4.52
same,pIC50,[2],< 5.00
"CC(=O)N1CC[C@H]2CC[C@@H](C(=O)Nc3ccc(-c4ccccc4)[nH]c3=O)N2C(=O)[C@@H](NC(=O)c2cc3cc(C(F)(F)P(=O)(O)O)ccc3[nH]2)C1 [Compound 180, ((2-(((5S,8S,10aR)-3-acetyl-6-oxo-8-((2-oxo-6-phenyl-1,2-dihydropyridin-3-yl)carbamoyl)decahydropyrrolo[1,2-a][1,5]diazocin-5-yl)carbamoyl)-1H-indol-5-yl)difluoromethyl)phosphonic acid]",pIC50,[1],5.52 to 6.52
same,pIC50,[2],6.00 to 7.00
"CO[C@H]1CN(C(C)=O)C[C@@H]1NC(=O)[C@@H]1CC[C@@H]2CCN(C(C)=O)C[C@H](NC(=O)c3cc4cc(C(F)(F)P(=O)(O)O)ccc4s3)C(=O)N21 [Compound 184, ((2-(((5S,8S,10aR)-3-acetyl-8-(((3S,4S)-1-acetyl-4-methoxypyrrolidin-3-yl)carbamoyl)-6-oxodecahydropyrrolo[1,2-a][1,5]diazocin-5-yl)carbamoyl)benzo[b]thiophen-5-yl)difluoromethyl)phosphonic acid]",pIC50,[1],5.52 to 6.52
same,pIC50,[2],6.00 to 7.00
"CC(=O)N1CC[C@H]2CC[C@@H](C(=O)N3C[C@H](C#N)C[C@@H]3c3ccccc3)N2C(=O)[C@@H](NC(=O)c2cc3cc(C(F)(F)P(=O)(O)O)ccc3s2)C1 (relative stereo) [Compound 205, ((2-(((5S,8S,10aR)-3-acetyl-8-((rel-cis)-4-cyano-2-phenylpyrrolidine-1-carbonyl)-6-oxodecahydropyrrolo[1,2-a][1,5]diazocin-5-yl)carbamoyl)benzo[b]thiophen-5-yl)difluoromethyl)phosphonic acid]",pIC50,[1],5.52 to 6.52
same,pIC50,[2],5.00 to 6.00
"CC(=O)N1CC[C@H]2CC[C@@H](C(=O)N3CC(C(=O)N4CCN(C)CC4)C3)N2C(=O)[C@@H](NC(=O)c2cc3cc(C(F)(F)P(=O)(O)O)ccc3s2)C1 [Compound 195, ((2-(((5S,8S,10aR)-3-acetyl-8-(3-(4-methylpiperazine-1-carbonyl)azetidine-1-carbonyl)-6-oxodecahydropyrrolo[1,2-a][1,5]diazocin-5-yl)carbamoyl)benzo[b]thiophen-5-yl)difluoromethyl)phosphonic acid]",pIC50,[1],5.52 to 6.52
same,pIC50,[2],5.00 to 6.00
"CC(=O)N1CC[C@H]2CC[C@@H](C(=O)N3CC(c4cccnc4)C3)N2C(=O)[C@@H](NC(=O)c2cc3cc(C(F)(F)P(=O)(O)O)ccc3s2)C1 [Compound 122, ((2-(((5S,8S,10aR)-3-acetyl-6-oxo-8-(3-(pyridin-3-yl)azetidine-1-carbonyl)decahydropyrrolo[1,2-a][1,5]diazocin-5-yl)carbamoyl)benzo[b]thiophen-5-yl)difluoromethyl)phosphonic acid]",pIC50,[1],5.52 to 6.52
same,pIC50,[2],≥ 7.00
"Cc1ccc2onc(C(=O)N3CC[C@H]4CC[C@@H](C(=O)N5CCOCC5)N4C(=O)[C@@H](NC(=O)c4ccc5ncc(C(F)P(=O)(O)O)cc5c4)C3)c2c1 (stereo partly drawn) [Compound 376, (fluoro(6-(((5S,8S, 10aR)-3-(5-methylbenzo[d]isoxazole-3-carbonyl)-8-(morpholine-4-carbonyl)-6-oxodecahydropyrrolo [1,2-a][1,5]diazocin-5-yl)carbamoyl)quinolin-3-yl)methyl)phosphonic acid]",pIC50,[1],5.52 to 6.52
same,pIC50,[2],< 5.00
"COc1ccccc1N(C)C(=O)[C@@H]1CC[C@@H]2CCN(C(C)=O)C[C@H](NC(=O)c3cc4cc(C(F)(F)P(=O)(O)O)ccc4[nH]3)C(=O)N21 [Compound 164, ((2-(((5S,8S,10aR)-3-acetyl-8-((2-methoxyphenyl)(methyl)carbamoyl)-6-oxodecahydropyrrolo[1,2-a][1,5]diazocin-5-yl)carbamoyl)-1H-indol-5-yl)difluoromethyl)phosphonic acid]",pIC50,[1],5.52 to 6.52
same,pIC50,[2],5.00 to 6.00
"CC(=O)N1CC[C@H]2CC[C@@H](C(=O)N(C)c3ccc(N4CCOCC4)cc3)N2C(=O)[C@@H](NC(=O)c2cc3cc(C(F)(F)P(=O)(O)O)ccc3s2)C1 [Compound 190, ((2-(((5S,8S,10aR)-3-acetyl-8-(methyl(4-morpholinophenyl)carbamoyl)-6-oxodecahydropyrrolo[1,2-a][1,5]diazocin-5-yl)carbamoyl)benzo[b]thiophen-5-yl)difluoromethyl)phosphonic acid]",pIC50,[1],5.52 to 6.52
same,pIC50,[2],5.00 to 6.00
"CC(=O)N1CC[C@H]2CC[C@@H](C(=O)N(C)c3ccccc3C#N)N2C(=O)[C@@H](NC(=O)c2cc3cc(C(F)(F)P(=O)(O)O)ccc3[nH]2)C1 [Compound 108, ((2-(((5S,8S,10aR)-3-acetyl-8-((2-cyanophenyl)(methyl)carbamoyl)-6-oxodecahydropyrrolo[1,2-a][1,5]diazocin-5-yl)carbamoyl)-1H-indol-5-yl)difluoromethyl)phosphonic acid]",pIC50,[1],5.52 to 6.52
same,pIC50,[2],5.00 to 6.00
"N#C[C@H]1CN(C(=O)[C@@H]2CC[C@@H]3CCN(CC(F)F)C[C@H](NC(=O)c4ccc5ccc(C(F)(F)P(=O)(O)O)cc5c4)C(=O)N32)CC[C@@H]1c1ccccc1 (relative stereo) [Compound 241, ((7-(((5S,8S,10aR)-8-((rel-trans)-3-cyano-4-phenylpiperidine-1-carbonyl)-3-(2,2-difluoroethyl)-6-oxodecahydropyrrolo[1,2-a][1,5]diazocin-5-yl)carbamoyl)naphthalen-2-yl)difluoromethyl)phosphonic acid]",pIC50,[1],5.52 to 6.52
same,pIC50,[2],5.00 to 6.00
"CCN1CC[C@H](NC(=O)c2ccc3ccc(C(F)(F)P(=O)(O)O)cc3c2)C(=O)N2[C@H](CC[C@H]2C(=O)N2C[C@H](c3ccccc3)[C@@H](C#N)C2)C1 (relative stereo) [Compound 227, ((7-(((5S,8S,10aR)-8-((rel-trans)-3-cyano-4-phenylpyrrolidine-1-carbonyl)-2-ethyl-6-oxodecahydropyrrolo[1,2-a][1,4]diazocin-5-yl)carbamoyl)naphthalen-2-yl)difluoromethyl)phosphonic acid]",pIC50,[1],≥ 6.52
same,pIC50,[2],5.00 to 6.00
